Results from US11524966B1 (Valo Early Discovery, Inc., priority 2017, dated 2022).

What follows are compounds tested against T1, USP25 (USP25-His6, Boston Biochem E-546) (Homo sapiens, UniProt Q9UHP3) (assay: Ubiquitin-Rhodamine 110 Assay for USP25 Activity, Example A-2). Conditions: Ubiquitin-Rhodamine 110 assay, Example A-2; read-out: USP25 A-2 IC50 range.
T1 construct: His6; purchased Boston Biochem E-546
T1 sequence (Q9UHP3 1-1055): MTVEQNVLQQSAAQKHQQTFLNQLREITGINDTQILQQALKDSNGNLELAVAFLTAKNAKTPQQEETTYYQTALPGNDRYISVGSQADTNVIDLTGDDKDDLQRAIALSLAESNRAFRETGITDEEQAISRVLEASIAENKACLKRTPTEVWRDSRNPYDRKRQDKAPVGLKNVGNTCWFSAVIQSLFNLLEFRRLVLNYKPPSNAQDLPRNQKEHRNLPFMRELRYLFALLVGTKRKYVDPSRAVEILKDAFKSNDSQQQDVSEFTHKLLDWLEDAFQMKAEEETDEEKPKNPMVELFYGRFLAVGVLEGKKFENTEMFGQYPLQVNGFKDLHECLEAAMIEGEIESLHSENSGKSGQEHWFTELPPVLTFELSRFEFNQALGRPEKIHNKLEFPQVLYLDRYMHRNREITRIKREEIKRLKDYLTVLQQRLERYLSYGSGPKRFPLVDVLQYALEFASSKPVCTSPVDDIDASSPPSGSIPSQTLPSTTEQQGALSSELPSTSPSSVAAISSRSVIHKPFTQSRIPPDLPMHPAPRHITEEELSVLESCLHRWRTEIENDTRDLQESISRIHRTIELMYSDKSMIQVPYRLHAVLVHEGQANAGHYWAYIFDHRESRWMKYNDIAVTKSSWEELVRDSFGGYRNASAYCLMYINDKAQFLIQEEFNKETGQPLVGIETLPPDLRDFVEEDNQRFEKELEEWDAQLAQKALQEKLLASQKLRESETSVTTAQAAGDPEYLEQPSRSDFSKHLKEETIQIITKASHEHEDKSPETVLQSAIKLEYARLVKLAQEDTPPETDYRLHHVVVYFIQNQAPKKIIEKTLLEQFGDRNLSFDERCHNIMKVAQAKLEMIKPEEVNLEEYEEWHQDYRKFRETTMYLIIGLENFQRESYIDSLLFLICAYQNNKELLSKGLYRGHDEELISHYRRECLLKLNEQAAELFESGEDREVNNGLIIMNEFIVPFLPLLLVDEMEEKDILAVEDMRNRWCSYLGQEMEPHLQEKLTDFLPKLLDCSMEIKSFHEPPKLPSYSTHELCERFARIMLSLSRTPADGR
Assay type: biochemical
Outline: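 Steps: compound dilutions (top 25 μM, 3-fold, 10 points) were preincubated 30 min with 75 pM USP25-His6; 25 nM Ub-Rh110 substrate was added under initial-velocity conditions; after 45 min at room temperature, 10 mM citric acid stopped the reaction before fluorescence reading.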

Compound	IC50 [nM]
O=C(N[C@@H]1COc2cc(N3CCNCC3)ccc2C1)c1cnc2c(ccn2C(F)F)c1 [Example 39, (S)-1-(difluoromethyl)-N-(7-(piperazin-1-yl)chroman-3-yl)-1H-pyrrolo[2,3-b]pyridine-5-carboxamide]	> 2000
Cc1ccc2c(N)c(C(=O)N[C@H]3COc4cc(N5C[C@H]6CNC[C@@H]6C5)ccc4C3)sc2n1 [Example 43, 3-amino-N-((R)-7-((3aR,6aR)-hexahydropyrrolo[3,4-c]pyrrol-2(1H)-yl)chroman-3-yl)-6-methylthieno[2,3-b]pyridine-2-carboxamide]	> 2000
Cc1ccc2c(N)c(C(=O)N[C@@H]3COc4cc(N5C[C@H]6CNC[C@@H]6C5)ccc4C3)sc2n1 [Example 44, 3-amino-N-((S)-7-((3aR,6aR)-hexahydropyrrolo[3,4-c]pyrrol-2(1H)-yl)chroman-3-yl)-6-methylthieno[2,3-b]pyridine-2-carboxamide]	> 2000
Nc1c(C(=O)N[C@H]2COc3cc(N4CCNCC4)ccc3C2)sc2nc(C3CC3)sc12 [Example 45]	200 to 2000
Cc1nc2sc(C(=O)N[C@@H]3COc4cc(N5CC6CCC(C5)N6)c(F)cc4C3)c(N)c2s1 [Example 46, N-((3S)-7-(3 8-diazabicyclo[3.2.1]octan-3-yl)-6-fluorochroman-3-yl)-6-amino-2-methylthieno[2,3-d]thiazole-5-carboxamide]	200 to 2000
Cc1nc2sc(C(=O)N[C@H]3COc4cc(N5CC6CCC(C5)N6)c(F)cc4C3)c(N)c2s1 [Example 47, N-((3R)-7-(3,8-diazabicyclo[3.2.1]octan-3-yl)-6-fluorochroman-3-yl)-6-amino-2-methylthieno[2,3-d]thiazole-5-carboxamide]	> 2000
Cc1ccc2c(N)c(C(=O)N[C@H]3COc4cc(N5CCNCC5)cc(Cl)c4C3)sc2n1 [Example 48, (R)-3-amino-N-(5-chloro-7-(piperazin-1-yl)chroman-3-yl)-6-methylthieno[2,3-b]pyridine-2-carboxamide]	50 to 200
Cc1ccc2c(N)c(C(=O)N[C@@H]3COc4cc(N5CCNCC5)cc(Cl)c4C3)sc2n1 [Example 49, (S)-3-amino-N-(5-chloro-7-(piperazin-1-yl)chroman-3-yl)-6-methylthieno[2,3-b]pyridine-2-carboxamide]	> 2000
O=C(N[C@H]1COc2cc(N3CC4CCC(C3)N4)ccc2C1)c1cnc2c(c1)CCCN2 [Example 50, N-((3R)-7-(3,8-diazabicyclo[3.2.1]octan-3-yl)chroman-3-yl)-5,6,7,8-tetrahydro-1,8-naphthyridine-3-carboxamide]	200 to 2000
O=C(N[C@H]1COc2cc(N3CC4CCC(C3)N4)ccc2C1)c1cnc2c(c1)CCCO2 [Example 51, N-((3R)-7-(3,8-diazabicyclo[3.2.1]octan-3-yl)chroman-3-yl)-3,4-dihydro-2H-pyrano[2,3-b]pyridine-6-carboxamide]	> 2000
O=C(N[C@H]1COc2cc(N3CCNCC3)ccc2C1)c1ccc(NCc2ccccc2)nc1 [Example 52, (R)-6-(benzylamino)-N-(7-(piperazin-1-yl)chroman-3-yl)nicotinamide]	200 to 2000
C[C@H](Nc1ccc(C(=O)N[C@H]2COc3cc(N4CCNCC4)ccc3C2)cn1)c1ccccc1 [Example 53, 6-(((S)-1-phenylethyl)amino)-N-((R)-7-(piperazin-1-yl)chroman-3-yl)nicotinamide]	> 2000
C[C@@H](Nc1ccc(C(=O)N[C@H]2COc3cc(N4CCNCC4)ccc3C2)cn1)c1ccccc1 [Example 54, 6-(((R)-1-phenylethyl)amino)-N-((R)-7-(piperazin-1-yl)chroman-3-yl)nicotinamide]	> 2000
Cc1ccc2c(N)c(C(=O)N[C@H]3COc4c(F)c(N5CCNCC5)cc(F)c4C3)sc2n1 [Example 55, (R)-3-amino-N-(5,8-difluoro-7-(piperazin-1-yl)chroman-3-yl)-6-methylthieno[2,3-b]pyridine-2-carboxamide]	50 to 200
Cc1nc2sc(C(=O)N[C@H]3COc4c(F)c(N5CCNCC5)cc(F)c4C3)c(N)c2s1 [Example 56, (R)-6-amino-N-(5,8-difluoro-7-(piperazin-1-yl)chroman-3-yl)-2-methylthieno[2,3-d]thiazole-5-carboxamide]	200 to 2000
O=C(N[C@H]1COc2cc(N3CCNCC3)ccc2C1)c1cnc2c(c1)CC[C@H]2O [Example 57, (R)-7-hydroxy-N-((R)-7-(piperazin-1-yl)chroman-3-yl)-6,7-dihydro-5H-cyclopenta[b]pyridine-3-carboxamide]	> 2000
O=C(N[C@H]1COc2cc(N3CCNCC3)ccc2C1)c1cnc2c(c1)CC[C@@H]2O [Example 58, (S)-7-hydroxy-N-((R )-7-(piperazin-1-yl)chroman-3-yl)-6,7-dihydro-5H-cyclopenta[b]pyridine-3-carboxamide]	> 2000
O=C(N[C@H]1COc2cc(N3CCNCC3)ccc2C1)c1cnc2c(ccn2Cc2ccccc2)c1 [Example 59, (R)-1-benzyl-N-(7-(piperazin-1-yl)chroman-3-yl)-1H-pyrrolo[2,3-b]pyridine-5-carboxamide]	1 to 50
Cc1cnc2c(N)c(C(=O)N[C@H]3COc4c(C#N)c(N5CCNCC5)cc(F)c4C3)sc2n1 [Example 60, (R)-7-amino-N-(8-cyano-5-fluoro-7-(piperazin-1-yl)chroman-3-yl)-3-methylthieno[2,3-b]pyrazine-6-carboxamide]	200 to 2000
Cc1ccc2c(N)c(C(=O)N[C@H]3COc4cc(N5CCNCC5)c(F)c(F)c4C3)sc2n1 [Example 61, (R)-3-amino-N-(5,6-difluoro-7-(piperazin-1-yl)chroman-3-yl)-6-methylthieno[2,3-b]pyridine-2-carboxamide]	50 to 200
Cc1ccc2c(N)c(C(=O)N[C@H]3COc4cc([C@H]5CCNC[C@H]5O)ccc4C3)sc2n1 [Example 62, 3-amino-N-((R)-7-((3S,4R)-3-hydroxypiperidin-4-yl)chroman-3-yl)-6-methylthieno[2,3-b]pyridine-2-carboxamide]	1 to 50
Cc1ccc2c(N)c(C(=O)N[C@H]3COc4cc([C@@H]5CCNC[C@@H]5O)ccc4C3)sc2n1 [Example 63, 3-amino-N-((R)-7-((3R,4S)-3-hydroxypiperidin-4-yl)chroman-3-yl)-6-methylthieno[2,3-b]pyridine-2-carboxamide]	50 to 200
Cc1ccc2c(N)c(C(=O)N[C@H]3COc4cc([C@H]5CCNC[C@@H]5O)ccc4C3)sc2n1 [Example 64, 3-amino-N-((R)-7-((3R,4R)-3-hydroxypiperidin-4-yl)chroman-3-yl)-6-methylthieno[2,3-b]pyridine-2-carboxamide]	50 to 200
Cc1ccc2c(N)c(C(=O)N[C@H]3COc4cc([C@@H]5CCNC[C@H]5O)ccc4C3)sc2n1 [Example 65, 3-amino-N-((R)-7-((3S,4S)-3-hydroxypiperidin-4-yl)chroman-3-yl)-6-methylthieno[2,3-b]pyridine-2-carboxamide]	50 to 200
Cc1nc2sc(C(=O)N[C@H]3COc4cc(N5CCNCC5)c(F)c(F)c4C3)c(N)c2s1 [Example 66, (R)-6-amino-N-(5,6-difluoro-7-(piperazin-1-yl)chroman-3-yl)-2-methylthieno[2,3-d]thiazole-5-carboxamide]	200 to 2000
Cc1cnc2c(N)c(C(=O)N[C@H]3COc4cc(N5CCNCC5)c(C#N)c(F)c4C3)sc2n1 [Example 67, (R)-7-amino-N-(6-cyano-5-fluoro-7-(piperazin-1-yl)chroman-3-yl)-3-methylthieno[2,3-b]pyrazine-6-carboxamide]	50 to 200
